Experimental data reported in the NIST ThermoML archive (doi:10.1021/je060269j).

Conditions: Liquid, Flow apparatus with low residence time

C=CC(=O)OCCCC [butyl 2-propenoate]
Conditions	Critical pressure [kPa]	Critical temperature [K]	vapor or sublimation pressure [kPa]
–	2840	601.2	–
441.9 K	–	–	178.6
471.9 K	–	–	351.6
506.5 K	–	–	689.5
549.3 K	–	–	1380
599.1 K	–	–	2761

O=CN1CCOCC1 [N-formylmorpholine]
Conditions	Critical pressure [kPa]	Critical temperature [K]	vapor or sublimation pressure [kPa]
–	5080	779.3	–
507.5 K	–	–	91.7
538 K	–	–	174.8
573.2 K	–	–	343.4
614.6 K	–	–	688.1
663.6 K	–	–	1379
664.7 K	–	–	1382
723.7 K	–	–	2761
745.2 K	–	–	3447
762.7 K	–	–	4137
775.2 K	–	–	4826
777.7 K	–	–	4999

CC1(C)CO1 [2,2-dimethyloxirane]
Conditions	Critical pressure [kPa]	Critical temperature [K]	vapor or sublimation pressure [kPa]
–	4350	499.9	–
320.1 K	–	–	87.08
339.1 K	–	–	165.1
365.6 K	–	–	348.9
393.2 K	–	–	678.4
428.2 K	–	–	1381
469.4 K	–	–	2760
496.4 K	–	–	4141
499.2 K	–	–	4306

CN(CCO)CCO [N-methyldiethanolamine]
Conditions	Critical pressure [kPa]	Critical temperature [K]	vapor or sublimation pressure [kPa]
–	4160	741.9	–
519.7 K	–	–	98.59
543.3 K	–	–	175.1
574.8 K	–	–	346.1
617.1 K	–	–	743.9
657.1 K	–	–	1389
707.5 K	–	–	2785
728.1 K	–	–	3475
735.4 K	–	–	3799
738.4 K	–	–	3985

CCCCSSCCCC [5,6-dithiadecane]
Conditions	vapor or sublimation pressure [kPa]
504.2 K	90.32
535.7 K	180.3
571.7 K	349.6
614.9 K	695.7

CC(=O)OC(C)OC(C)=O [ethylidene diethanoate]
Conditions	Critical pressure [kPa]	Critical temperature [K]	vapor or sublimation pressure [kPa]
–	2970	618.2	–
461.6 K	–	–	177.6
486.4 K	–	–	314.3
514.2 K	–	–	555.5
541.2 K	–	–	902.2
571.5 K	–	–	1457
601.1 K	–	–	2286
608.2 K	–	–	2561
612 K	–	–	2697

CC(=O)OC(C)(C)C [1,1-dimethylethyl ethanoate]
Conditions	Critical pressure [kPa]	Critical temperature [K]	vapor or sublimation pressure [kPa]
–	3040	541.2	–
472.7 K	–	–	1053
495 K	–	–	1527
514.5 K	–	–	2074
533.7 K	–	–	2722
535.7 K	–	–	2802
535.9 K	–	–	2801
536.4 K	–	–	2835
537.3 K	–	–	2868
537.7 K	–	–	2903
538.6 K	–	–	2949

CCOC(=O)C(=O)OCC [diethyl ethanedioate]
Conditions	Critical pressure [kPa]	Critical temperature [K]	vapor or sublimation pressure [kPa]
–	3060	645.8	–
454.6 K	–	–	90.67
481.8 K	–	–	182.4
512.9 K	–	–	359.9
547.3 K	–	–	690.9
590.1 K	–	–	1381
638.8 K	–	–	2761
642.5 K	–	–	2934
644.4 K	–	–	3013

O=C=Nc1ccccc1 [phenyl isocyanate]
Conditions	Critical pressure [kPa]	Critical temperature [K]	vapor or sublimation pressure [kPa]
–	4000	656.9	–
479.7 K	–	–	278.9
553.2 K	–	–	1038
588.3 K	–	–	1724
618.6 K	–	–	2551
653 K	–	–	3795
653.1 K	–	–	3793
